A short description of series [1]: Cell cytotoxicity test: protection of HT22 cells against glutamate toxicity (EC50) and cytotoxicity of the compounds (CC50), MTT. Particulars: mouse, HT22 cells (mouse hippocampal neuron). The format is cell-based, mouse. As for the experimental part: (§1) HT22 cells (mouse hippocampal neuron, Salk Institute and KRIBB) were plated in a 96-well plate at a density of 3×10^3 cells/well for 16 hrs before treatment. The cells were treated with five millimolar glutamate and various concentrations of the inventive compounds and incubated for 24 hrs in a growth media (DMEM with 10% FBS and 1% penicillin streptomycin). Then, the cells were treated with 3-(4,5-dimethylthiazol-2-yl)-2,5-diphenyltetrazolium bromide (MTT, Sigma®) for 4 hrs and absorbance of each well was measured with a plate reader at a wavelength of 450 nm. [Da-Qing, et. al., Anti-oxidant and anti-inflammatory activities of macelignan in murine hippocampal cell line and primary culture of rat microglia cells, BBRC, 2005, 331, 1264-1269].
(§2) In Table 1, EC50 is neuroprotective effect against glutamate toxicity and CC50 is cytotoxicity of the compounds. The EC50 values were statistically analyzed using Prizm® (GraphPad Software Inc., San Diego, Calif., USA).

Series [2] deals with HT22 cells (mouse hippocampal neuron). The series is described as above. The settings on record: Mus musculus, HT-22, five millimolar glutamate, 24 hrs, read-out: EC50 (neuroprotective effect against glutamate toxicity). The format is cell-based. As for the experimental part: as §1, §2

Counter-ions that a name gives are not always drawn.

In series [1], `Oc1cc2c(cc1-c1ccc(Cl)cc1Cl)C[C@@H]1NCC[C@]23CCCC[C@H]13` [Example 76, (+)-2-(2,4-Dichlorophenyl)-3-hydroxymorphinan TFA salt] registered a cytotoxic concentration (CC50) at 24 h of 4.4 µM. Also, the 50% effective concentration (EC50) in series [2] is 2.97 µM.

In series [1], `Oc1cc2c(cc1-c1ccc(F)cc1)C[C@@H]1NCC[C@]23CCCC[C@H]13` [Example 77, (+)-2-(4-Fluorophenyl)-3-hydroxymorphinan TFA salt] yielded a 50% cytotoxic concentration (CC50) at 24 h of 8.3 µM. For the same compound, the concentration giving a half-maximal response (EC50) in series [2] came to 3.11 µM.

For the compound `N#Cc1cccc(-c2cc3c(cc2O)[C@]24CCCC[C@@H]2[C@H](C3)NCC4)c1` [Example 78, (+)-2-(3-Cyanophenyl)-3-hydroxymorphinan TFA salt], in series [1], half-maximal cytotoxicity (CC50 at 24 h) was put at 21 µM. Besides, the EC50 in series [2] was 4.6 µM.

With `Oc1cc2c(cc1-c1ccc(C(F)(F)F)cc1)C[C@@H]1NCC[C@]23CCCC[C@H]13` [Example 79, (+)-3-Hydroxy-2-(4-trifluorophenyl)morphinan TFA salt], the midpoint of cytotoxicity in series [1], the CC50 at 24 h, lay at 11 µM. Moreover, in series [2], the concentration giving a half-maximal response (EC50) came to 6.1 µM.

`CC(C)Cc1cc2c(cc1O)[C@]13CCCC[C@@H]1[C@H](C2)NCC3` [Example 81, (+)-3-Hydroxy-2-isobutylmorphinan TFA salt] registered a CC50 at 24 h in series [1] of 11.3 µM. Moreover, the EC50 in series [2] is 1.43 µM.

Regarding `CCCc1cc2c(cc1O)[C@]13CCCC[C@@H]1[C@H](C2)NCC3` [Example 82, (+)-3-Hydroxy-2-propylmorphinan TFA salt], the CC50 at 24 h in series [1] is 28.2 µM. Further, the EC50 in series [2] was found to be 1.02 µM.

As for `CCCCc1cc2c(cc1O)[C@]13CCCC[C@@H]1[C@H](C2)NCC3` [Example 83, (+)-2-Butyl-3-hydroxymorphinan TFA salt], the CC50 at 24 h in series [1] was 51.5 µM. Moreover, in series [2], the EC50 was determined as 2.07 µM.

Compound `Oc1cc2c(cc1N1CCOCC1)C[C@@H]1NCC[C@]23CCCC[C@H]13` [Example 86, (+)-3-Hydroxy-2-morpholinomorphinan TFA salt] registered a half-maximal cytotoxic concentration (CC50) at 24 h in series [1] above 100 µM. For the same compound, in series [2], the concentration for a half-maximal effect (EC50) worked out at 1.55 µM.

Consider `CC(C)Nc1cc2c(cc1O)[C@]13CCCC[C@@H]1[C@H](C2)NCC3` [Example 87, (+)-3-Hydroxy-2-isopropylaminomorphinan TFA salt], for which half-maximal cytotoxicity in series [1] (CC50 at 24 h) was put at 39.5 µM. Moreover, the half-maximal effective concentration (EC50) in series [2] stood at 0.0354 µM.

For `CCCNc1cc2c(cc1O)[C@]13CCCC[C@@H]1[C@H](C2)NCC3` [Example 88, (+)-3-Hydroxy-2-propylaminomorphinan TFA salt], half-maximal cytotoxicity in series [1] (CC50 at 24 h) was put at 37.2 µM. The concentration for a half-maximal effect (EC50) in series [2] was determined as 0.0416 µM.

`CCCC(CCC)Nc1cc2c(cc1O)[C@]13CCCC[C@@H]1[C@H](C2)NCC3` [Example 89, (+)-2-(Heptan-4-ylamino)-3-hydroxymorphinan TFA salt] showed a 50% cytotoxic concentration (CC50) at 24 h in series [1] of 1.94 µM. In addition, the EC50 in series [2] came out at 0.074 µM.

The compound `CCCCNc1cc2c(cc1O)[C@]13CCCC[C@@H]1[C@H](C2)NCC3` [Example 90, (+)-2-Butylamino-3-hydroxymorphinan TFA salt] returned a CC50 at 24 h in series [1] of 35 µM. Further, the EC50 in series [2] was 0.0747 µM.

For `CC(Nc1cc2c(cc1O)[C@]13CCCC[C@@H]1[C@H](C2)NCC3)c1ccccc1` (stereo partly drawn) [Example 91, (+)-3-Hydroxy-2-(1-phenylethylamino)morphinan TFA salt], the CC50 at 24 h in series [1] worked out at 15 µM. Further, the EC50 in series [2] was 0.0813 µM.

On to `Oc1cc2c(cc1NC1CCCC1)C[C@@H]1NCC[C@]23CCCC[C@H]13` [Example 92, (+)-2-Cyclopentylamino-3-hydroxymorphinan TFA salt], for which, in series [1], the CC50 at 24 h was 378 µM. Further, the concentration for a half-maximal effect (EC50) in series [2] is 0.0927 µM.

`Oc1cc2c(cc1NC1CCCCC1)C[C@@H]1NCC[C@]23CCCC[C@H]13` [Example 93, (+)-2-Cyclohexylamino-3-hydroxymorphinan TFA salt] returned a CC50 at 24 h in series [1] of 13.8 µM. The EC50 in series [2] was 0.0986 µM.

For the compound `Oc1cc2c(cc1NC1CCCCCC1)C[C@@H]1NCC[C@]23CCCC[C@H]13` [Example 94, (+)-2-Cycloheptylamino-3-hydroxymorphinan TFA salt], the CC50 at 24 h in series [1] was determined as 7.55 µM. Also, in series [2], the 50% effective concentration (EC50) stood at 0.102 µM.

`CCC(C)Nc1cc2c(cc1O)[C@]13CCCC[C@@H]1[C@H](C2)NCC3` (stereo partly drawn) [Example 95, (+)-2-(sec-Butylamino)-3-hydroxymorphinan TFA salt] registered a CC50 at 24 h in series [1] of 66.4 µM. The EC50 in series [2] was 0.131 µM.

Regarding `CCCN(CCC)c1cc2c(cc1O)[C@]13CCCC[C@@H]1[C@H](C2)NCC3` [Example 96, (+)-2-(Dipropylamino)-3-hydroxymorphinan TFA salt], in series [1], the CC50 at 24 h stood at 3.49 µM. Moreover, in series [2], the EC50 is 0.178 µM.

In series [1], `Oc1cc2c(cc1NCCC(F)(F)F)C[C@@H]1NCC[C@]23CCCC[C@H]13` [Example 97, (+)-3-Hydroxy-2-(3-trifluoropropylamino)morphinan TFA salt] yielded a CC50 at 24 h of 67 µM. Also, the EC50 in series [2] was 0.183 µM.

On to `CN(C)c1cc2c(cc1O)[C@]13CCCC[C@@H]1[C@H](C2)NCC3` [Example 98, (+)-2-(Dimethylamino)-3-hydroxymorphinan TFA salt], for which, in series [1], the CC50 at 24 h is above 100 µM. In addition, the EC50 in series [2] was found to be 5.69 µM.

For the compound `CCOCCNc1cc2c(cc1O)[C@]13CCCC[C@@H]1[C@H](C2)NCC3` [Example 99, (+)-2-(2-Ethoxyethylamino)-3-hydroxymorphinan TFA salt], the CC50 at 24 h in series [1] was above 100 µM. For the same compound, in series [2], the EC50 was determined as 10.4 µM.

With `OCCNc1cc2c(cc1O)[C@]13CCCC[C@@H]1[C@H](C2)NCC3` [Example 100, (+)-3-Hydroxy-2-(2-hydroxyethylamino)morphinan TFA salt], the 50% cytotoxic concentration (CC50) at 24 h in series [1] was above 100 µM. In series [2], the EC50 amounted to 11.7 µM.

Consider `CCN(CC)c1cc2c(cc1O)[C@]13CCCC[C@@H]1[C@H](C2)NCC3` [Example 101, (+)-2-(Diethylamino)-3-hydroxymorphinan TFA salt], for which the CC50 at 24 h in series [1] was above 100 µM. The EC50 in series [2] came to 14 µM.

For `CCCN(C)c1cc2c(cc1O)[C@]13CCCC[C@@H]1[C@H](C2)NCC3` [Example 102, (+)-3-Hydroxy-2-(methylpropylamino)morphinan TFA salt], the CC50 at 24 h in series [1] was 29.6 µM. Further, the EC50 in series [2] was determined as 0.548 µM.

The compound `CCN(C)c1cc2c(cc1O)[C@]13CCCC[C@@H]1[C@H](C2)NCC3` [Example 103, (+)-2-(Ethylmethylamino)-3-hydroxymorphinan TFA salt] yielded a CC50 at 24 h in series [1] above 100 µM. Further, in series [2], the EC50 was found to be 1.59 µM.

Compound `CC(C)(C)c1cc2c(cc1O)[C@]13CCCC[C@@H]1[C@H](C2)NCC3` [Example 104, (+)-2-tert-Butyl-3-hydroxymorphinan TFA salt] came in with a CC50 at 24 h in series [1] of 10 µM. Besides, the EC50 in series [2] came to 1.37 µM.

In the case of `CC1(c2cc3c(cc2O)[C@]24CCCC[C@@H]2[C@H](C3)NCC4)CCCCC1` [Example 105, (+)-3-Hydroxy-2-(1-methylcyclohexyl)morphinan TFA salt], in series [1], the CC50 at 24 h was 2.24 µM. For the same compound, the half-maximal effective concentration (EC50) in series [2] was 0.594 µM.

As to `Nc1ccccc1Nc1cc2c(cc1O)[C@]13CCCC[C@@H]1[C@H](C2)NCC3` [Example 106, (+)-2-(2-Aminophenylamino)-3-hydroxymorphinan TFA salt], the half-maximal cytotoxic concentration (CC50) at 24 h in series [1] was 21.8 µM. Further, the EC50 in series [2] was found to be 0.0366 µM.

`N#Cc1ccccc1Nc1cc2c(cc1O)[C@]13CCCC[C@@H]1[C@H](C2)NCC3` [Example 107, (+)-2-(2-Cyanophenylamino)-3-hydroxymorphinan TFA salt] displayed a half-maximal cytotoxic concentration (CC50) at 24 h in series [1] of 5.8 µM. Also, in series [2], the concentration for a half-maximal effect (EC50) is 0.557 µM.

Turning to `COC(=O)c1ccccc1Nc1cc2c(cc1O)[C@]13CCCC[C@@H]1[C@H](C2)NCC3` [Example 108, (+)-3-Hydroxy-2-(2-(methoxycarbonyl)phenylamino)morphinan TFA salt], the 50% cytotoxic concentration (CC50) at 24 h in series [1] is above 100 µM. Besides, the 50% effective concentration (EC50) in series [2] was determined as 7.96 µM.

`O=C(O)c1ccccc1Nc1cc2c(cc1O)[C@]13CCCC[C@@H]1[C@H](C2)NCC3` [Example 109, (+)-2-(2-Carboxyphenylamino)-3-hydroxymorphinan TFA salt]: the CC50 at 24 h in series [1] was above 100 µM. Further, the EC50 in series [2] amounted to 14.1 µM.

Consider `CS(=O)(=O)Nc1ccccc1Nc1cc2c(cc1O)[C@]13CCCC[C@@H]1[C@H](C2)NCC3` [Example 110, (+)-3-Hydroxy-2-(2-(methanesulfonamido)phenylamino)morphinan TFA salt], for which it took 7.55 µM to reach half-maximal cytotoxicity in series [1] (CC50 at 24 h). The EC50 in series [2] stood at 0.00453 µM.

As for `CCS(=O)(=O)Nc1ccccc1Nc1cc2c(cc1O)[C@]13CCCC[C@@H]1[C@H](C2)NCC3` [Example 111, (+)-2-(2-(Ethanesulfonamido)phenylamino)-3-hydroxymorphinan TFA salt], it took 36.5 µM to reach half-maximal cytotoxicity in series [1] (CC50 at 24 h). Besides, in series [2], the EC50 was determined as 0.475 µM.

`CCCCS(=O)(=O)Nc1ccccc1Nc1cc2c(cc1O)[C@]13CCCC[C@@H]1[C@H](C2)NCC3` [Example 112, (+)-2-(2-(Butanesulfonamido)phenylamino)-3-hydroxymorphinan TFA salt] showed a CC50 at 24 h in series [1] of 20 µM. In addition, in series [2], the half-maximal effective concentration (EC50) was determined as 0.0556 µM.

For `O=S(=O)(Nc1ccccc1Nc1cc2c(cc1O)[C@]13CCCC[C@@H]1[C@H](C2)NCC3)c1ccccc1` [Example 113, (+)-2-(2-(Benzenesulfonamido)phenylamino)-3-hydroxymorphinan TFA salt], in series [1], half-maximal cytotoxicity (CC50 at 24 h) was put at 3.01 µM. Besides, in series [2], the EC50 worked out at 0.0272 µM.

Compound `CS(=O)(=O)Nc1ccc(Nc2cc3c(cc2O)[C@]24CCCC[C@@H]2[C@H](C3)NCC4)cc1` [Example 114, (+)-3-Hydroxy-2-(4-(methanesulfonamido)phenylamino)morphinan TFA salt] had a cytotoxic concentration (CC50) at 24 h in series [1] of 11.4 µM. In addition, in series [2], the EC50 turned out to be 0.0329 µM.

The term CC50 denotes the concentration that lowers cell viability or growth by half. The low end stands for harm at low concentration, the high end for better tolerance by the cells. A word on the EC50: it is the concentration giving half of the maximal effect.
